Molecular target: T1, TRPV3 in KU-19-19 cells (Homo sapiens, UniProt Q8NET8)
T1 construct: host or cells: KU-19-19
T1 sequence (Q8NET8 1-790): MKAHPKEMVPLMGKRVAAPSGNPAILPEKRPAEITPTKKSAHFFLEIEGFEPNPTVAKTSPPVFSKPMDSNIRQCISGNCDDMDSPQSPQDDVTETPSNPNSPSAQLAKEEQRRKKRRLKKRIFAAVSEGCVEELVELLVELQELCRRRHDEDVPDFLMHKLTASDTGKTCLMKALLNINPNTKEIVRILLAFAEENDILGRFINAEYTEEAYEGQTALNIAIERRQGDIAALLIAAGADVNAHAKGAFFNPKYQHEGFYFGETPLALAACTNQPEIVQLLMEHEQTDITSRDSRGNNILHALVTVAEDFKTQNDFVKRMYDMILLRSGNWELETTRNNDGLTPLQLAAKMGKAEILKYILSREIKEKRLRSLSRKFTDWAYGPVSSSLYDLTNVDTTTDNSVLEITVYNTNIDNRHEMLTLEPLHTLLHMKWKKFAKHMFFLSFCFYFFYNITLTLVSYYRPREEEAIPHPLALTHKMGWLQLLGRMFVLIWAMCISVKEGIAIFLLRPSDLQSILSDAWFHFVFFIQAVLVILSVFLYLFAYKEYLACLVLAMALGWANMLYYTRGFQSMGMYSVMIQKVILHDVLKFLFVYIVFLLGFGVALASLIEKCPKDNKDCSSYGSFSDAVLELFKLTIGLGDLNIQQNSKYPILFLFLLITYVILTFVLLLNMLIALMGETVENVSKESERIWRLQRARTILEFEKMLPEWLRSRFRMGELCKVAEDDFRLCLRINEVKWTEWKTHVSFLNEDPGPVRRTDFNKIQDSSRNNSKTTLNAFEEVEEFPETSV
Experiment: fura-2 Ca2+ assay in KU-19-19 bladder cancer cells
Format: cell-based
Conditions: 50 μM AV3-1
Procedure: All fluorometric Ca^2+ assays were performed in HBS buffer at room temperature. The compounds of the Enamine Diversity Set were diluted in a buffer composed of 150 mM NaCl and 20 mM HEPES and added to the cells at a final concentration of 25 μM (0.5% DMSO). For the primary compound screening and the generation of concentration-response analyses, a robotic liquid handling station (Freedom Evo 150; Tecan) with a built-in custom-made fluorescence plate imager was used. HEKTRPV3 and bladder cancer cell lines were harvested and loaded with 4 μM fluo-4/AM (Invitrogen; Fisher Scientific) in cell culture medium for 30 minutes at 37 °C. […] Fluorescence was excited using a 470-nm light-emitting diode, and emitted light was imaged through a 515-nm–long pass filter with a cooled Zyla 5.5 camera (Andor). Fluorescence was recorded and processed under the control of the μ-Manager 2.0 gamma software (https://micro-manager.org.[28]). After recording baseline fluorescence, compounds were dispensed into the wells via the liquid handling device. […] For further analysis, fluorescence signals were calculated for each well, corrected for background intensities and normalized to the initial signals. […] Fluorescence signals were excited with a fiber-coupled monochromator device (Polychrome V; Till Photonics) at 340, 358, and 380 nm and calibrated as described before.[29] […]

Question: How did the “[Ca2+]i response in KU-19-19 cells” value turn out when `COC(=O)C12CN(Cc3ccccc3)CC1(C(=O)OC)CN(Cc1ccccc1)C2` (stereo not shown) [AV3-1] was run?
Answer: Its value is “robust increases in [Ca^2+]i”.

Reference: PMC12881674, “Activation of TRPV3 channels in bladder cancer cells stimulates ATP release” (Molecular Pharmacology, 2025)
